Results taken from the NIST ThermoML archive (doi:10.1016/j.jct.2008.05.014).

Assay: xn = mol fraction of the nth substance listed
Settings: Liquid; for speed of sound: Pulse-echo method

CCCCCCCCCCCC [dodecane] + CCCCCCC
Settings	mass density [kg/m3]	speed of sound [m/s]
303.17 K, 101 kPa, x2 = 0.2001	–	1238.5
308.11 K, 30390 kPa, x2 = 0.9391	–	1298.5
308.11 K, 30390 kPa, x2 = 0.97	–	1294.9
308.11 K, 45590 kPa, x2 = 0.9391	–	1376.1
308.11 K, 45590 kPa, x2 = 0.97	–	1373
308.11 K, 60790 kPa, x2 = 0.9391	–	1445.9
308.11 K, 60790 kPa, x2 = 0.97	–	1443.2
308.11 K, 75990 kPa, x2 = 0.9391	–	1509.5
308.11 K, 75990 kPa, x2 = 0.97	–	1507.2
308.11 K, 91180 kPa, x2 = 0.9391	–	1568
308.11 K, 101320 kPa, x2 = 0.4999	–	1649.5
308.11 K, 101320 kPa, x2 = 0.9391	–	1605.3
308.11 K, 101320 kPa, x2 = 0.97	–	1603.3
308.12 K, 101 kPa, x2 = 0	–	1240.2
308.12 K, 101 kPa, x2 = 0.6	–	1164.6
308.12 K, 101 kPa, x2 = 0.8995	–	1109.6
308.12 K, 15200 kPa, x2 = 0.9391	–	1209.5
308.12 K, 15200 kPa, x2 = 0.97	–	1205.4
308.12 K, 45590 kPa, x2 = 0.1014	–	1468.2
308.12 K, 45590 kPa, x2 = 0.4999	–	1432.7
308.12 K, 60790 kPa, x2 = 0.1014	–	1531
308.12 K, 75990 kPa, x2 = 0.1014	–	1589.4
308.12 K, 91180 kPa, x2 = 0.1014	–	1643.8
308.12 K, 91180 kPa, x2 = 0.4999	–	1614.6
308.12 K, 91180 kPa, x2 = 0.97	–	1565.8
308.12 K, 101320 kPa, x2 = 0.1014	–	1677.8
308.13 K, 101 kPa, x2 = 0.3002	–	1207.1
308.13 K, 101 kPa, x2 = 0.7002	–	1147.7
308.13 K, 101 kPa, x2 = 0.8	–	1129.6
308.13 K, 15200 kPa, x2 = 0.1014	–	1321.5
308.13 K, 15200 kPa, x2 = 0.4999	–	1278.8
308.13 K, 30390 kPa, x2 = 0.1014	–	1398.8
308.13 K, 30390 kPa, x2 = 0.3007	–	1379.7
308.13 K, 30390 kPa, x2 = 0.4999	–	1360.2
308.13 K, 30390 kPa, x2 = 0.5003	–	1360.2
308.13 K, 30390 kPa, x2 = 0.7007	–	1334.7
308.13 K, 45590 kPa, x2 = 0.3007	–	1450.6
308.13 K, 45590 kPa, x2 = 0.7007	–	1409.4
308.13 K, 60790 kPa, x2 = 0.4999	–	1498.1
308.13 K, 60790 kPa, x2 = 0.5003	–	1498.2
308.13 K, 60790 kPa, x2 = 0.7007	–	1476.6
308.13 K, 75990 kPa, x2 = 0	–	1596.8
308.13 K, 75990 kPa, x2 = 0.4999	–	1558.1
308.13 K, 75990 kPa, x2 = 0.5003	–	1558.2
308.13 K, 75990 kPa, x2 = 0.7007	–	1537.9
308.13 K, 91180 kPa, x2 = 0	–	1650.9
308.13 K, 91180 kPa, x2 = 0.3007	–	1629.5
308.13 K, 91180 kPa, x2 = 0.5003	–	1614.7
308.13 K, 91180 kPa, x2 = 0.7007	–	1595.3
308.13 K, 101320 kPa, x2 = 0.3007	–	1664.1
308.13 K, 101320 kPa, x2 = 0.5003	–	1649.8
308.13 K, 101320 kPa, x2 = 0.7007	–	1631.3
308.14 K, 101 kPa, x2 = 0.3996	–	1194.1
308.14 K, 15200 kPa, x2 = 0	–	1331
308.14 K, 15200 kPa, x2 = 0.3007	–	1300.4
308.14 K, 15200 kPa, x2 = 0.5003	–	1278.7
308.14 K, 15200 kPa, x2 = 0.7007	–	1250.1
308.14 K, 30390 kPa, x2 = 0	–	1407.6
308.14 K, 45590 kPa, x2 = 0	–	1476.3
308.14 K, 45590 kPa, x2 = 0.5003	–	1432.6
308.14 K, 60790 kPa, x2 = 0	–	1538.6
308.14 K, 60790 kPa, x2 = 0.3007	–	1515
308.14 K, 75990 kPa, x2 = 0.3007	–	1574.3
308.15 K, 101 kPa, x2 = 0	738.031	–
308.15 K, 101 kPa, x2 = 0.0991	733.816	–
308.15 K, 101 kPa, x2 = 0.1007	–	1230
308.15 K, 101 kPa, x2 = 0.2001	–	1219
308.15 K, 101 kPa, x2 = 0.2008	729.111	–
308.15 K, 101 kPa, x2 = 0.2998	724.073	–
308.15 K, 101 kPa, x2 = 0.3996	718.583	–
308.15 K, 101 kPa, x2 = 0.5	712.522	–
308.15 K, 101 kPa, x2 = 0.5002	–	1179.8
308.15 K, 101 kPa, x2 = 0.6	705.898	–
308.15 K, 101 kPa, x2 = 0.7005	698.575	–
308.15 K, 101 kPa, x2 = 0.7995	690.497	–
308.15 K, 101 kPa, x2 = 0.8486	686.148	–
308.15 K, 101 kPa, x2 = 0.8988	681.426	–
308.15 K, 101 kPa, x2 = 0.9498	676.348	–
308.15 K, 15200 kPa, x2 = 0.8496	–	1227.4
308.15 K, 30390 kPa, x2 = 0.8496	–	1314.4
308.15 K, 45590 kPa, x2 = 0.8496	–	1390.8
308.15 K, 60790 kPa, x2 = 0.8496	–	1459.7
308.15 K, 75990 kPa, x2 = 0.8496	–	1522.3
308.15 K, 91180 kPa, x2 = 0.8496	–	1580.4
308.15 K, 101320 kPa, x2 = 0.8496	–	1617.2
313.08 K, 15200 kPa, x2 = 0.9391	–	1191.3
313.08 K, 30390 kPa, x2 = 0.9391	–	1281.8
313.08 K, 45590 kPa, x2 = 0.9391	–	1360.6
313.08 K, 60790 kPa, x2 = 0.9391	–	1431.4
313.08 K, 75990 kPa, x2 = 0.9391	–	1495.6
313.08 K, 91180 kPa, x2 = 0.9391	–	1554.5
313.08 K, 101320 kPa, x2 = 0.4999	–	1636.7
313.08 K, 101320 kPa, x2 = 0.9391	–	1592.1
313.09 K, 30390 kPa, x2 = 0.97	–	1278.1
313.09 K, 45590 kPa, x2 = 0.97	–	1357.5
313.09 K, 60790 kPa, x2 = 0.4999	–	1483.8
313.09 K, 60790 kPa, x2 = 0.97	–	1428.5
313.09 K, 75990 kPa, x2 = 0.4999	–	1544.2
313.09 K, 75990 kPa, x2 = 0.97	–	1493.1
313.09 K, 91180 kPa, x2 = 0.4999	–	1601.2
313.09 K, 91180 kPa, x2 = 0.97	–	1552.3
313.09 K, 101320 kPa, x2 = 0.97	–	1589.9
313.1 K, 101 kPa, x2 = 0	–	1221
313.1 K, 101 kPa, x2 = 0.6	–	1144.4
313.1 K, 101 kPa, x2 = 0.8995	–	1088.5
313.1 K, 15200 kPa, x2 = 0.4999	–	1261.2
313.1 K, 15200 kPa, x2 = 0.97	–	1186.9
313.1 K, 30390 kPa, x2 = 0.4999	–	1344.1
313.1 K, 45590 kPa, x2 = 0.4999	–	1417.6
313.1 K, 60790 kPa, x2 = 0.7007	–	1462.1
313.1 K, 91180 kPa, x2 = 0.7007	–	1581.9
313.1 K, 101320 kPa, x2 = 0.1014	–	1665
313.11 K, 101 kPa, x2 = 0.3002	–	1187.6
313.11 K, 101 kPa, x2 = 0.3996	–	1174.4
313.11 K, 101 kPa, x2 = 0.7002	–	1127.3
313.11 K, 15200 kPa, x2 = 0.1014	–	1304
313.11 K, 15200 kPa, x2 = 0.3007	–	1282.9
313.11 K, 15200 kPa, x2 = 0.7007	–	1232.2
313.11 K, 30390 kPa, x2 = 0.1014	–	1382.7
313.11 K, 30390 kPa, x2 = 0.3007	–	1363.6
313.11 K, 30390 kPa, x2 = 0.5003	–	1344.2
313.11 K, 30390 kPa, x2 = 0.7007	–	1318.2
313.11 K, 45590 kPa, x2 = 0.1014	–	1453
313.11 K, 45590 kPa, x2 = 0.5003	–	1417.5
313.11 K, 45590 kPa, x2 = 0.7007	–	1393.8
313.11 K, 60790 kPa, x2 = 0.1014	–	1516.7
313.11 K, 60790 kPa, x2 = 0.5003	–	1483.9
